Measurements taken from patent US20260183281A1, “PHARMACEUTICAL COMPOSITION COMPRISING A PRMT5 INHIBITOR AND AN EGFR INHIBITOR” (APEIRON THERAPEUTICS (HONG KONG) LTD., priority 2024, published 2026).

Tests used:
[1] = tested on: NCI-H292 MTAP deleted cells; assay: Cell growth inhibition (CellTiter-Glo, 144 h), single agents and combinations, CI by Calcusyn; assay type: cell-based; conditions: for IC20 / IC50: Homo sapiens, NCI-H292, single agent; for Max Inh %: single agent
Procedure: NCI-H292 MTAP deleted cell line was purchased from Nanjing Cobioer Biotechnology Co., Ltd. The cells were cultured in a cell culture medium containing 90% RPMI1640 and 10% fetal bovine serum at 37° C. and 5% CO2. Experiments could only be performed on cells in the logarithmic growth phase.
Adjust the cell density in complete medium and seed the cells into 96-well culture plates. Incubate the plates at 37° C. with 5% CO2. Add the two test compounds to the plates using a serial dilution scheme. Continue incubation at 37° C. and 5% CO2 for 144 h. Thaw the CellTiter-Glo (CTG) reagent and equilibrate the plates to room temperature for ˜30 min. Add an equal volume of CTG reagent to each well, shake on an orbital shaker for 5 min to lyse the cells, and allow the signal to stabilize at room temperature for 20 min. Measure luminescence on a plate reader and record the data. Data analysis:
Cell growth inhibition (%)=100−(Lum test drug−Lum culture medium control)/(Lum solvent control−Lum culture medium control)×100%
Calcusyn was used to analyze the combination index (CI) values.

[2] = tested on: human lung cancer PDX model LD1-0025-200729; assay: In vivo pharmacodynamic study in PDX NU/NU mouse model of Osimertinib-resistant non-small cell lung cancer; parameters: species or system NU/NU mice; conditions: for Tumor volume (mm^3) Mean: each drug 10 mg/kg PO QD; for tumor growth inhibition (TGI) / statistical difference compared with the control group: each drug 10 mg/kg, PO, once daily; for tumor growth inhibition (TGI): 56-day study; for statistical difference compared with the control group: one-way ANOVA
Description: NU/NU mice, female, 6-8 weeks old, weighing approximately 18-22 g. They were purchased from Beijing Vital River Laboratory Animal Technology Co., Ltd. All experimental mice were kept in the SPF-level animal room of Xi'an LIDE and acclimated for at least 3 days in advance. The lung cancer model tumor-bearing mice were chosen. When a tumor grew to 800-1000 mm^3, the tumor was taken out under sterile conditions and passed it subcutaneously into NU/NU mice. When the average tumor volume reached about 150 mm^3 (100-200 mm^3), 18 tumor-bearing mice were chosen and randomly divided into 6 groups according to the tumor volume. The day of grouping was Day 0, and they were administered according to the following solution:
N: Number of animals; dose volume: 10 μL/g; PO: per os. Administer Osimertinib or Osimertinib solvent first, and administer compound A or compound A solvent after an interval of 1 hour.
The main purpose was to detect the growth inhibition effect or complete cure ability of the test drug compound A as a single drug or in combination with Osimertinib on the human lung cancer PDX model LD1-0025-200729.
Tumor volume and weight measurement of tumor-bearing mice: A vernier caliper was used to measure twice a week. The calculation equation for tumor volume is V=0.5 a×b^2, where a and b represent the major and minor diameters of the tumor, respectively;
Tumor growth inhibition: TGI (%)=[1−(Ti−T0)/(Vi−V0)]×100
Ti is the mean tumor volume after the start of administration in the compound group, T0 is the mean tumor volume at the first dose in the compound group, V0 is the mean tumor volume at the first dose in the vehicle control group, and Vi is the mean tumor volume after the start of administration in the vehicle control group.

[3] = administration time 0 days (grouping)

Structure (SMILES) | IC20 [1] | IC50 [1] | Max Inh % [1] | Tumor volume (mm^3) Mean [2, 3] | Tumor volume (mm^3) Mean ([2]; administration time 4 days) | Tumor volume (mm^3) Mean ([2]; administration time 7 days) | Tumor volume (mm^3) Mean ([2]; administration time 11 days) | Tumor volume (mm^3) Mean ([2]; administration time 14 days) | Tumor volume (mm^3) Mean ([2]; administration time 18 days) | Tumor volume (mm^3) Mean ([2]; administration time 21 days) | Tumor volume (mm^3) Mean ([2]; administration time 25 days) | Tumor volume (mm^3) Mean ([2]; administration time 28 days) | Tumor volume (mm^3) Mean ([2]; administration time 32 days) | Tumor volume (mm^3) Mean ([2]; administration time 35 days) | Tumor volume (mm^3) Mean ([2]; administration time 39 days) | Tumor volume (mm^3) Mean ([2]; administration time 42 days) | Tumor volume (mm^3) Mean ([2]; administration time 46 days) | Tumor volume (mm^3) Mean ([2]; administration time 49 days) | Tumor volume (mm^3) Mean ([2]; administration time 53 days) | Tumor volume (mm^3) Mean ([2]; administration time 56 days) | further results
C[C@H](c1ccc(C(F)(F)F)cn1)N(C(=O)c1cc2c(cc1F)nc(N)c1cncn12)C1CC1 [Compound C] | 9.6 nM | 49.9 nM | 64.6% | – | – | – | – | – | – | – | – | – | – | – | – | – | – | – | – | – | TGI (%) ([1]; Compound C 3.20 nM, Osimertinib 0.0 nM): 4.0%; TGI (%) ([1]; Compound C 16.0 nM, Osimertinib 0.0 nM): 23.7%; TGI (%) ([1]; Compound C 80.0 nM, Osimertinib 0.0 nM): 38.2%; TGI (%) ([1]; Compound C 400 nM, Osimertinib 0.0 nM): 49.5%; TGI (%) ([1]; Compound C 2000 nM, Osimertinib 0.0 nM): 61.0%; TGI (%) ([1]; Compound C 10000 nM, Osimertinib 0.0 nM): 60.4%
CN(C(=O)c1ccc2nc(N)c3cncn3c2c1)[C@@H]1COc2cc(C(F)(F)F)ccc21 [Compound A, (S)-4-amino-N-methyl-N-(6-(trifluoromethyl)-2,3-dihydrobenzofuran-3-yl)imidazo[1,5-a]quinoxaline-8-carboxamide] | 10.7 nM | 117 nM | 71.2% | 155.2 mm^3 | 179.8 mm^3 | 205.2 mm^3 | 228.6 mm^3 | 251.0 mm^3 | 274.5 mm^3 | 271.3 mm^3 | 315.2 mm^3 | 321.2 mm^3 | 318.3 mm^3 | 308.3 mm^3 | 288.3 mm^3 | 266.9 mm^3 | 278.7 mm^3 | 281.0 mm^3 | 283.7 mm^3 | 287.7 mm^3 | Tumor volume (mm^3) Mean ([2]; administration time 57 days): 288.1 mm^3; tumor growth inhibition (TGI) [2]: 85.8%; statistical difference compared with the control group [2]: statistically significant difference; TGI (%) ([1]; Compound A 3.20 nM, Osimertinib 0 nM): 11.4%; TGI (%) ([1]; Compound A 16.0 nM, Osimertinib 0 nM): 10.8%; TGI (%) ([1]; Compound A 80.0 nM, Osimertinib 0 nM): 45.6%; TGI (%) ([1]; Compound A 400 nM, Osimertinib 0 nM): 51.8%; TGI (%) ([1]; Compound A 2000 nM, Osimertinib 0 nM): 66.6%; TGI (%) ([1]; Compound A 10000 nM, Osimertinib 0 nM): 75.1%
C=CC(=O)Nc1cc(Nc2nccc(-c3cn(C)c4ccccc34)n2)c(OC)cc1N(C)CCN(C)C [Osimertinib, reference compound] | 18.6 nM | 50.2 nM | 91.1% | 155.7 mm^3 | 185.9 mm^3 | 208.3 mm^3 | 232.2 mm^3 | 253.6 mm^3 | 288.4 mm^3 | 310.4 mm^3 | 369.2 mm^3 | 407.1 mm^3 | 439.2 mm^3 | 470.2 mm^3 | 501.3 mm^3 | 534.5 mm^3 | 589.4 mm^3 | 605.3 mm^3 | 633.7 mm^3 | 679.4 mm^3 | Tumor volume (mm^3) Mean ([2]; administration time 57 days): 689.6 mm^3; tumor growth inhibition (TGI) [2]: 43.1%; statistical difference compared with the control group [2]: no statistically significant difference; TGI (%) ([1]; Osimertinib 4 nM, Compound A 0 nM): 16.0%; TGI (%) ([1]; Osimertinib 4.1 nM, Compound C 0 nM): 20.5%; TGI (%) ([1]; Osimertinib 12 nM, Compound A 0 nM): 13.4%; TGI (%) ([1]; Osimertinib 12.3 nM, Compound C 0 nM): 18.8%; TGI (%) ([1]; Osimertinib 37 nM, Compound A 0 nM): 35.4%; TGI (%) ([1]; Osimertinib 37.0 nM, Compound C 0 nM): 34.3%; TGI (%) ([1]; Osimertinib 111 nM, Compound A 0 nM): 70.6%; TGI (%) ([1]; Osimertinib 111.1 nM, Compound C 0 nM): 68.4%; TGI (%) ([1]; Osimertinib 333 nM, Compound A 0 nM): 81.8%; TGI (%) ([1]; Osimertinib 333.3 nM, Compound C 0 nM): 81.4%; TGI (%) ([1]; Osimertinib 1000 nM, Compound A 0 nM): 90.9%; TGI (%) ([1]; Osimertinib 1000.0 nM, Compound C 0 nM): 92.3%
